For one assay, the target named is T1, Anopheles LKR (Anopheles stephensi, UniProt Q694V6).
T1 sequence (Q694V6 1-573): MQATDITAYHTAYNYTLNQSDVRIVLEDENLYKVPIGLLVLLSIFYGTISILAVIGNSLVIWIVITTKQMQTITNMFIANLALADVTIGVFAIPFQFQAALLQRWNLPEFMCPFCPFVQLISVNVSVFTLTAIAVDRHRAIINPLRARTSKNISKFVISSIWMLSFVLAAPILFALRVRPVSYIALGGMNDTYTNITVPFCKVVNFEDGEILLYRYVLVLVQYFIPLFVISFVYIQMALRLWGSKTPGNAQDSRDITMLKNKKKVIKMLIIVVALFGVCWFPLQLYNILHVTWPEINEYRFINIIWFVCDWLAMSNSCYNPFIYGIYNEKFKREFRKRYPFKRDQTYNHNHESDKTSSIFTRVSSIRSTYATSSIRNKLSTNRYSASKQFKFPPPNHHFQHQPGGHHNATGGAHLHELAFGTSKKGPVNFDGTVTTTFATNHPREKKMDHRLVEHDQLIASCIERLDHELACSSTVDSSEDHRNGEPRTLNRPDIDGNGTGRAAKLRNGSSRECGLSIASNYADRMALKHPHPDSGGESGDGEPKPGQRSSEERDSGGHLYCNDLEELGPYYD
In words: IP1 accumulation assay, CHO-K1 cells cotransfected with Anopheles LKR and promiscuous Gαq. It counts as cell-based. The settings on record: log scale, mean ± SEM, n = 3. From the text: Considering the similarity of leucokinin-like peptides in different species (Fig. 1), we sought to evaluate cross-activity between leucokinin peptides and their receptors in different species. We selected A. stephensi because it is a pest, and this would also provide an opportunity to determine if Aplysia LKs could be potentially used as insecticides ([67]). […] Thus, we cotransfected promiscuous Gαq with the Anopheles receptor, whereas there was no cotransfection of promiscuous Gαq for ALKR.
(§1) IP1 accumulation assay measures concentration of IP1 ([88]), that is hydrolyzed from the second messenger, inositol trisphosphate, generated by Gαq pathway when GPCR expressed in CHO-K1 cells is activated by an appropriate ligand. We note two reasons that we selected mammalian CHO-K1 cells for assays for ligand-receptor (GPCR) activity: (1) there are no established molluscan cell lines available; (2) CHO-K1 cells have been extensively utilized not only for vertebrate GPCRs (e.g., ([97])) but also for invertebrate/protostome GPCRs, including other molluscs ([9], [11], [73]), annelids ([8]), jellyfish ([98]), Caenorrhabditis elegans ([99]), and arthropods ([76], [78], [79], [80]). Given that LKRs are only present in protostomes ([6], [7], [66], [67]), an additional advantage of using mammalian cells to assay ligand-receptor activity is that the effects of a possible native LKR in protostome cell lines could be excluded.
In order to express the Aplysia putative receptor transiently in CHO-K1, the cDNA was cloned into the mammalian expression vector pcDNA3.1(+). […] Transfection experiments were performed when the cells were grown to 70 to 90% confluence. For the ALKR, in each dish (60-mm diameter), 4 μg of the putative receptor plasmids [in pcDNA3.1(+)] were mixed with 400 μl of Opti-MEM (Gibco, 11058021), followed by the addition of 15 μl of Turbofect (Thermo Fisher Scientific, R0531). […] Thus, 3 μg of the putative receptor plasmids [in pcDNA3.1(+)] and 3 μg of promiscuous Gαq protein ([89]) [in pcDNA3.1(+)] were cotransfected in the above procedure for the Anopheles LKR ([8], [10]). The CHO-K1 cells with the reagents added above were mixed gently and incubated at room temperature for 15 min. The DNA/Turbofect mixture dropwise was then added to the dish, and the cells were incubated at 37 °C in 5% CO2 overnight. The next day, the cells were trypsinized and reseeded in opaque white 96-well half-area (Corning, 3688) or 384-well tissue culture–treated plates (Corning, 3570) at a density of 20,000 cells/well in F-12K and 10% FBS and incubated at 37 °C in 5% CO2 overnight. On the third day, the activation of the receptors was detected by monitoring IP1 accumulation using IP1 detection kit (Cisbio, 62IPAPEB) with a Tecan Spark plate reader. […]

The target in assay [1] is T2, ALKR (Aplysia leucokinin-like peptide receptor) (Aplysia californica, UniProt A0A977Q7Q2).
T2 sequence (A0A977Q7Q2 1-429): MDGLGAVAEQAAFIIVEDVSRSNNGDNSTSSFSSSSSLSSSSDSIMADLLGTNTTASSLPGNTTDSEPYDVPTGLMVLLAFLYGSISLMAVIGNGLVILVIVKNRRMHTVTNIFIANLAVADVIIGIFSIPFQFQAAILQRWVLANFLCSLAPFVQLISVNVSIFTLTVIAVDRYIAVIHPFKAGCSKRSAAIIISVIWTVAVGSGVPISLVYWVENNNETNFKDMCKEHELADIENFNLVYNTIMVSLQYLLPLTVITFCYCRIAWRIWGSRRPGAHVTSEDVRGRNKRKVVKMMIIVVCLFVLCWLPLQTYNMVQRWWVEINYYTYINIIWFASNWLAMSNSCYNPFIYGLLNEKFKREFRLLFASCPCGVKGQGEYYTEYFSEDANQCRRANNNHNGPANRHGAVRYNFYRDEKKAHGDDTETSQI
In words: IP1 accumulation assay, CHO-K1 cells transfected with ALKR. It counts as cell-based. The settings on record: for EC50: CHO-K1 transiently transfected with ALKR, no promiscuous Gαq, ALK1 n = 13, ALK2 n = 4, others n = 3; for Active (√ active / × not active): ALKR, tick or cross in column Active (EC50); for Activation of ALKR (in words): IP1 accumulation in CHO-K1 transfected with ALKR.
Excerpt: To examine whether the native ALKs could activate the putative ALKR, we expressed the ALKR in Chinese hamster ovary K1 (CHO-K1) cells and examined ALK-mediated changes in the concentration of inositol monophosphate (IP1), a degradation product of the second messenger (inositol trisphosphate) in the Gq signaling pathway upon ligand-induced activation ([88]) (Figs. 4 and S5). […] All endogenous ALK peptides could activate ALKR in a dose-dependent manner (Fig. 4, A–C). […] The lowest EC50 values were for ALK8 (EC50 = 10 nM) and ALK9 (EC50 = 10 nM). The EC50 values for ALK1, ALK2, ALK3, ALK4, ALK5, ALK10, ALK13 were slightly higher than that of ALK9, but there was no statistically significant difference between them (Table S5).
as §1
In order to express the Aplysia putative receptor transiently in CHO-K1, the cDNA was cloned into the mammalian expression vector pcDNA3.1(+). […] Transfection experiments were performed when the cells were grown to 70 to 90% confluence. For the ALKR, in each dish (60-mm diameter), 4 μg of the putative receptor plasmids [in pcDNA3.1(+)] were mixed with 400 μl of Opti-MEM (Gibco, 11058021), followed by the addition of 15 μl of Turbofect (Thermo Fisher Scientific, R0531). […] Thus, 3 μg of the putative receptor plasmids [in pcDNA3.1(+)] and 3 μg of promiscuous Gαq protein ([89]) [in pcDNA3.1(+)] were cotransfected in the above procedure for the Anopheles LKR ([8], [10]). The CHO-K1 cells with the reagents added above were mixed gently and incubated at room temperature for 15 min. The DNA/Turbofect mixture dropwise was then added to the dish, and the cells were incubated at 37 °C in 5% CO2 overnight. The next day, the cells were trypsinized and reseeded in opaque white 96-well half-area (Corning, 3688) or 384-well tissue culture–treated plates (Corning, 3570) at a density of 20,000 cells/well in F-12K and 10% FBS and incubated at 37 °C in 5% CO2 overnight. On the third day, the activation of the receptors was detected by monitoring IP1 accumulation using IP1 detection kit (Cisbio, 62IPAPEB) with a Tecan Spark plate reader. Except for using 0.5 × reagents for the anti-IP1-cryptate and IP1-d2 reagents, all other procedures were performed in accordance with the IP1 detection kit manufacturer’s instructions.

Assay [2] has as its target ALKR N314A (Aplysia californica).
The target in assay [3] is ALKR Q250A & Q311A (Aplysia californica).
In assay [4] the target is ALKR L157Q (Aplysia californica).
Assay [5] has as its target ALKR Q317A (Aplysia californica).
The target of assay [6] is ALKR I329Q (Aplysia californica).
Assay [7] has as its target ALKR Y213A (Aplysia californica).
Assay [8] addresses ALKR L157Q & I329Q (Aplysia californica).
The target of assay [9] is ALKR Q133A & Y213A & Q317A (Aplysia californica).
For assay [10], the target named is ALKR Q133A (Aplysia californica).
Assay [11] addresses Aplysia leucokinin-like peptide receptor (Aplysia californica).
For assay [12] the target is unchanged. This is another data set of the same source.
The mark [13] stands for this setting: log scale, IP1 detection kit (Cisbio), mean ± SEM, inactive: greater than highest concentration tested, read-out: log [EC50] on ALKR (converted).
Setting [14] is: IP1 accumulation, average, rounded to two significant figures, read-out: EC50 on ALKR.

For orientation: EC50 means the concentration needed to bring the measured effect to its halfway point.

“Also recorded” adds a separate entry of the source. Where two headings read alike, the source gives them in different places. Where no end group is shown, it is not given here.

As to PAFSPWS-NH2 [ALK9], the figures for the EC50 (on Anopheles LKR; in [1] (setting [13])) were 0.724 µM and 0.00977 µM, respectively. Take “DTPRYVSKQKFHSWG-NH2 [Anopheles LK1, reference compound]”: the results for the EC50 (on Anopheles LKR; in assay [1] (setting [13])) were 0.00363 µM and 0.427 µM, respectively. With LAAFHAWS-NH2 [ALK12], in assay [1] (setting [13]), the concentration giving a half-maximal response (EC50) is 0.295 µM. Turning to Aplysia leucokinin-like peptide 1, the EC50 of IP1 accumulation in CHO-K1 cells expressing the ALKR mutant, activated by ALK1 in assay [2] was determined as 0.12 µM; in assay [3], 19 µM; in [4], 0.077 µM; in assay [5] it was 0.056 µM; in [6], 6.8 µM; in [7], 0.37 µM. In addition, the EC50 of IP1 accumulation in CHO-K1 cells expressing the ALKR mutant, activated by ALK1 in assay [8] amounted to 35 µM; in assay [9], 13 µM; in [10], 0.078 µM. Consider Aplysia leucokinin-like peptide 11, for which, in [11], the EC50 of IP1 accumulation in CHO-K1 cells transfected with ALKR turned out to be 0.062 µM. Regarding PAFHAWS-NH2 [ALK2], the EC50 in assay [1] (setting [13]) was 0.0214 µM. In the case of PAFNAWG-NH2 [ALK8], the EC50 is 0.0407 µM at Anopheles LKR and 0.0102 µM in assay [1] (setting [13]). As to PAFHSWS-OH [ALK1_nG], the “Active (√ active / × not active)” value in [1] (IP1 accumulation) is “×”.

As to Aplysia leucokinin-like peptide 8, in assay [11], the EC50 of IP1 accumulation in CHO-K1 cells transfected with ALKR was 0.01 µM.

In the case of PRFHAWS-NH2 [ALK7], in assay [1] (setting [13]), the EC50 was 0.0912 µM. With ALK1 with H4 replaced with A (peptide), in assay [12], the EC50 of IP1 accumulation in CHO-K1 cells transfected with ALKR came out at 0.051 µM. With PAFHSWS-OH [ALK1-OH], the 50% effective concentration (EC50) in assay [1] (setting [14]) and in assay [1] (setting [13]) was greater than 10 µM in each case. In [1], the “Activation of ALKR (in words)” value is “not active; also recorded: not able to activate”. For the substance PAAHSWS-NH2 [ALK1_A3], the EC50 in assay [1] (setting [14]) and in [1] (setting [13]) was greater than 10 µM each time. Moreover, the “Activation of ALKR (in words)” value in assay [1] is recorded as “not active”. For the same substance, in assay [1] (IP1 accumulation), the “Active (√ active / × not active)” value is “×”.

On to Aplysia leucokinin-like peptide 9, for which, in [11], the EC50 of IP1 accumulation in CHO-K1 cells transfected with ALKR amounted to 0.01 µM. On to PAFASWS-NH2 [ALK1_A4], for which the EC50 in [1] (setting [13]) is 0.0513 µM. Take PAFHAWG-NH2 [ALK10]: the concentration for a half-maximal effect (EC50) in [1] (setting [13]) is 0.0214 µM. Consider Aplysia leucokinin-like peptide 12, for which, in assay [11], the EC50 of IP1 accumulation in CHO-K1 cells transfected with ALKR is 0.33 µM.

On to PAFHSWA-NH2 [ALK1_A7], for which the EC50 in assay [1] (setting [13]) is 0.0282 µM. Regarding PAFSAWS-NH2 [ALK3], the EC50 in assay [1] (setting [13]) was 0.0117 µM. The same measure, in the same setting: then SEKQPAFHAWS-NH2 [ALK6], with 0.0316 µM; and PAAFHAWS-NH2 [ALK11], with 0.0617 µM.

Aplysia leucokinin-like peptide 7 gave an EC50 of IP1 accumulation in CHO-K1 cells transfected with ALKR in [11] of 0.092 µM.

For the substance AAFHSWS-NH2 [ALK1_A1], in [1] (setting [13]), the EC50 is 0.141 µM.

For PAFHSAS-NH2 [ALK1_A6], the EC50 in assay [1] (setting [14]) and in assay [1] (setting [13]) was greater than 10 µM each time. The “Activation of ALKR (in words)” value in assay [1] is reported as “not active”. In addition, in assay [1] (IP1 accumulation), the “Active (√ active / × not active)” value is “×”. In the case of AGFAPWA-NH2 [ALK4], the EC50 in [1] (setting [13]) was 0.0195 µM. Still for that read-out and setting: then PAFQAWS-NH2 [ALK13], with 0.0151 µM.

Aplysia leucokinin-like peptide 6 displayed an EC50 of IP1 accumulation in CHO-K1 cells transfected with ALKR in assay [11] of 0.032 µM. Turning to PAFSAWN-NH2 [ALK5], the half-maximal effective concentration (EC50) in assay [1] (setting [13]) was 0.0105 µM.

The values are drawn from publication PMC9562341, “AI protein structure prediction-based modeling and mutagenesis of a protostome receptor and peptide ligands reveal key residues for their interaction” (The Journal of Biological Chemistry, 2022).
